Assay results reported in PubChem BioAssay (NCI).
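Five compound concentrations were applied to cells in 96-well plates for 48 hours; endpoints were derived by simple linear interpolation of the resulting dose-response curve. GI50: concentration for 50% inhibition of growth. Definition used: TGI = concentration required for complete inhibition of growth.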

How the values were obtained:
Test in all cases: NCI-60 cell line screen, 48 h
SN12C renal = tested on: SN12C renal
A498 renal = tested on: A498 renal
HT29 colon = tested on: HT29 colon
T-47D breast = tested on: T-47D breast
SR leukemia = tested on: SR leukemia
COLO 205 colon = tested on: COLO 205 colon
NCI/ADR-RES ovarian = tested on: NCI/ADR-RES ovarian
SK-MEL-2 melanoma = tested on: SK-MEL-2 melanoma
HOP-62 NSCLC = tested on: HOP-62 NSCLC
BT-549 breast = tested on: BT-549 breast

| Compound | TGI (SN12C renal) [µM] | TGI (A498 renal) [µM] | TGI (HT29 colon) [µM] | TGI (T-47D breast) [µM] | TGI (SR leukemia) [µM] | TGI (COLO 205 colon) [µM] | TGI (NCI/ADR-RES ovarian) [µM] | TGI (SK-MEL-2 melanoma) [µM] | TGI (HOP-62 NSCLC) [µM] | TGI (BT-549 breast) [µM] | GI50 (SN12C renal) [µM] | GI50 (A498 renal) [µM] | GI50 (HT29 colon) [µM] | GI50 (T-47D breast) [µM] | GI50 (SR leukemia) [µM] | GI50 (NCI/ADR-RES ovarian) [µM] | GI50 (SK-MEL-2 melanoma) [µM] |
| --- | --- | --- | --- | --- | --- | --- | --- | --- | --- | --- | --- | --- | --- | --- | --- | --- | --- |
| O=[N+]([O-])c1cc(C2ON=C(c3ccccc3)N2C23CC4CC(CC(C4)C2)C3)ccc1Cl (stereo not given) | > 100 | > 100 | > 100 | > 100 | > 100 | > 100 | > 100 | > 100 | > 100 |  |  |  |  |  |  |  |  |
| COc1ccc(-c2c3c(n(C4OC(COC(C)=O)C(OC(C)=O)C(OC(C)=O)C4OC(C)=O)c(=S)c2C#N)CCCC3)cc1 (stereo not given) | > 100 | 90 | > 100 | > 100 | > 100 | > 100 | > 100 | 72.5 | > 100 |  |  |  |  |  |  |  |  |
| C[C@@H](Br)[C@@H]1CC[C@H]2c3[nH]c4ccccc4c3CCN2C1 |  | > 100 | 67.8 | 61.2 | 38.3 | 26.3 | 47.3 | 50.6 | 40.5 |  |  |  |  |  |  |  |  |
| COC(=O)c1cc(OCc2cc(OCc3ccc(Br)cc3)cc(OCc3ccc(Br)cc3)c2)cc(OCc2cc(OCc3ccc(Br)cc3)cc(OCc3ccc(Br)cc3)c2)c1 | > 100 | > 100 |  | > 100 |  | > 100 | > 100 | > 100 | > 100 | > 100 |  |  |  |  |  |  |  |
| O=C(O)c1cc2sc(C(=O)O)cc2s1 | > 100 | > 100 | > 100 |  | > 100 | > 100 |  |  | > 100 |  |  |  |  |  |  |  |  |
| O=C1OCC(CN2CCC(n3c(=O)[nH]c4ccccc43)CC2)=C1c1ccccc1 | 53.1 | 68.6 | 58.6 | 24.6 | 82.5 | 28.1 | 59.6 | 38.1 | 64.5 |  |  |  |  |  |  |  |  |
| COc1ccc(OC/C(N=Cc2cccnc2)=N/NC(=O)c2ccncc2)cc1 | > 100 | > 100 | > 100 | > 100 |  | > 100 | > 100 | > 100 | > 100 | > 100 |  |  |  |  |  |  |  |
| O=CC1C(=O)Nc2nc3ccccc3n2C1c1ccccc1 (stereo not given) | 28.2 | 28.8 | 41.2 |  |  | 26.2 | > 100 | 43.7 | 20.2 | 28.4 |  |  |  |  |  |  |  |
| COc1cc2oc(=O)cc(C)c2c(OC)c1OC | > 100 | 96.8 | > 100 |  | > 100 | > 100 | > 100 | > 100 | > 100 |  |  |  |  |  |  |  |  |
| Oc1ccccc1/C=N/N1C(=S)N(c2ccccc2)C(=Nc2ccccc2)C1=Nc1ccccc1 | 28.2 | 17.2 | 12.7 | 75.6 | > 81.2 | 11.3 | 41 | 42.9 | 22.6 |  |  |  |  |  |  |  |  |
| COc1ccc(C(CC(=O)c2ccc(O)cc2)C(C(=O)c2ccc(O)cc2)C(c2ccc(OC)cc2)C2C(=O)NC(=S)NC2=O)cc1 (stereo not given) | 57 | > 100 | > 100 |  | > 100 | 45.1 | > 100 | 70.8 | 67.1 | 47.9 |  |  |  |  |  |  |  |
| O=c1oc2ccc([N+](=O)[O-])cc2cc1-c1csc(-c2ccccc2)n1 | > 100 |  | > 100 | > 100 | > 100 | > 100 | > 100 | > 100 | > 100 | > 100 |  |  |  |  |  |  |  |
| CC1(C)CC(=O)C(/C=N/c2nc(-c3cccc([N+](=O)[O-])c3)cs2)=C(O)C1 | 37.6 | 30.5 | 30.7 | 37.3 |  | 30.9 | 39.2 | > 100 | 57.9 | 54 |  |  |  |  |  |  |  |
| Cc1cn(C2CC(/[N+]([O-])=N\Nc3ccc([N+](=O)[O-])cc3)C(CO)O2)c(=O)[nH]c1=O (stereo not given) | > 100 | > 100 | > 100 |  | > 100 | > 100 | > 100 |  | > 100 | > 100 |  |  |  |  |  |  |  |
| CN=C(NC#N)NCc1ccccc1 | > 100 | > 100 | > 100 |  | > 100 | > 100 |  | > 100 | > 100 |  |  |  |  |  |  |  |  |
| COc1ccc(C2=Nn3c(C)nnc3S/C2=C\c2ccc(-c3ccc([N+](=O)[O-])cc3)o2)cc1 | 33.6 | 89.8 | 43 | > 100 |  |  | 23.2 | 40.8 | > 100 | 19 |  |  |  |  |  |  |  |
| O=c1[nH]nc(-c2ccccc2)c2[nH]c3c(c12)CCCc1ccccc1-3 | 35.8 |  | 24.3 | 57.5 | 69.9 | 22.2 | 32.5 |  | 46.4 | 47.4 |  |  |  |  |  |  |  |
| COC(=O)CC(c1ccccc1)C(C#N)(OP1(=O)OC(c2ccccc2)C(C)N1C)c1ccccc1 (stereo not given) | > 100 | > 100 | > 100 | > 100 |  | 44.6 | > 100 | 92.6 | > 100 | > 100 |  |  |  |  |  |  |  |
| COc1cc(/C=C2\CCCC3=C2N=C2SC=NN2C3c2cc(OC)c(OC)c(OC)c2)cc(OC)c1OC (stereo not given) | 7.11 | 3.89 | 7.41 | > 100 | 9.47 |  | > 100 | > 100 |  |  | 2.39 | 1.48 | 3.07 | 3.9 | 2.55 | 3.45 | 3.46 |
| COc1ccc([C@H]2C=C(c3cc(F)c(Cl)cc3Cl)N=c3s/c(=C\c4ccc(-c5ccc(Cl)cc5Cl)o4)c(=O)n32)cc1 | > 100 | 6.58 | > 100 | > 100 |  | > 100 | > 100 | 48.3 | 45.3 | > 100 |  |  |  |  |  |  |  |
| FC(F)(F)c1ccc(N=NN2CCCC2)cc1 | > 100 | > 100 | > 100 | > 100 | > 100 | > 100 |  | > 100 | > 100 | > 100 |  |  |  |  |  |  |  |
| O=C(O)Cc1ccc(-n2nnc3c(=O)[nH][nH]c(=O)c32)cc1 | > 100 |  | > 100 |  | > 100 | > 100 | > 100 | > 100 | > 100 | > 100 |  |  |  |  |  |  |  |
